Experimental findings from US9017700B2, “Production of a viable, storable worm egg suspension” (Dr. Falk Pharma GmbH, priority 2008, dated 2015) are described below.

Data set [1] deals with Aspergillus niger. Kind of data set: Colony number in TSO samples at pH 4 with preservatives. Particulars: 10 000 TSO/ml in phosphate buffer pH 4, 25° C.; for T 1d: 1 day; for T 7d: 7 days. It is filed as cell-based. The protocol:
(§1) Raising the pH from pH 2 to pH 4 and addition of preservatives Experimental conditions for examples 4a to 4e: […] The following microorganisms were added to the test samples: • Aspergillus niger in the form of an individual microorganism • Pseudomonas aruginosa, Staphylococcus aureus, Candida albicans and Escherichia coli in combination. The incubation temperature was 25° C. The test plates were evaluated after 1 to 7 days.

The test system of data set [2] is Candida albicans. The description is as above. It is filed as cell-based. To be noted: 10 000 TSO/ml in phosphate buffer pH 4, 25° C.; for T 1d: 1 day; for T 7d: 7 days. The procedure:
as §1

The next data set relates to Staphylococcus aureus. The data set is described as above. Format: cell-based. To be noted: 10 000 TSO/ml in phosphate buffer pH 4, 25° C.; for T 1d: 1 day; for T 7d: 7 days. The procedure:
as §1

Data set [3] has as its system Escherichia coli. Described as above. It is filed as cell-based. Particulars: 10 000 TSO/ml in phosphate buffer pH 4, 25° C.; for T 1d: 1 day; for T 7d: 7 days. The procedure:
as §1

The test system of another data set is Psuedomonas aeruginosa. Described as above. Format: cell-based. Particulars: 10 000 TSO/ml in phosphate buffer pH 4, 25° C.; for T 1d: 1 day; for T 7d: 7 days. The procedure:
as §1

For data set [4], the system named is Aspergillus niger. Kind of data set: Microbial count after H2SO4 treatment of inoculated nutrient suspension (test molds). It is filed as cell-based.
The test system of a further data set is Penicillium brevicomp. The data set is described as above. Format: cell-based.
The subject of data set [5] is Candida albicans. Kind of data set: Microbial count after H2SO4 treatment of inoculated nutrient suspension (test yeasts). Format: cell-based.
A further data set deals with Saccharomyces cer. Described as above. It is filed as cell-based.
The test system of a further data set is Bacillus subtilis. Kind of data set: Microbial count after H2SO4 treatment of inoculated nutrient suspension (test bacteria). Particulars: pH 2, 6 h at 30° C.
Data set [6] relates to microorganisms in Trichuris suis egg suspension (TSO). Kind of data set: Depletion of microorganisms in a T. suis egg suspension (microbial count per DAB 2.6.12). It is filed as cell-based. Particulars: TSO 2400 eggs/ml rebuffered to pH 2; after storage for 3 h at 30° C. The protocol:
The microbial count in a Trichuris suis egg suspension (TSO) in phosphate buffer (pH 7) at a concentration of 2400 eggs/ml was determined as specified in the DAB (German Pharmacopoeia, section 2.6.12, last updated with the 24th Supplement in 2006). […] This suspension was then rebuffered to pH 2 in dilute H2SO4 solution.

The next data set has as its system feline calicivirus (FCV). Format: cell-based. To be noted: pH 2, 30° C., with TSO; after 3 h.
For another data set, the system named is pseudorabies virus (PRV). Format: cell-based. To be noted: pH 2, 30° C., with TSO; after 10 min.
The subject of data set [7] is murine leukemia virus (MuLV). Format: cell-based. To be noted: pH 2, 30° C., with TSO; after 10 min.
For the next data set, the system named is Salmonella typhymurium. Kind of data set: Microbial count after H2SO4 treatment of inoculated nutrient suspension (test bacteria). Particulars: pH 2, 6 h at 30° C.
Data set [8] has as its system Escherichia coli. The data set is described as above. To be noted: pH 2, 6 h at 30° C.
Another data set has as its system porcine parvovirus (PPV). It is filed as cell-based. To be noted: pH 2, 30° C., with TSO; after 3 h.
A further data set has as its system Clostridium sporog. Kind of data set: Microbial count after H2SO4 treatment of inoculated nutrient suspension (test bacteria). It is filed as cell-based. To be noted: pH 2, 6 h at 30° C.
The subject of the next data set is Staphylococus aureus. The description is as above. Particulars: pH 2, 6 h at 30° C.

Structures are written as SMILES. Marks after values point to notes of the source that are not given here.

With `O=C(O)c1ccccc1` [Benzoic acid 0.2%, Benzoic acid], the “T 1d” value with Aspergillus niger [1] was 90 cfu/ml; in the data set with Candida albicans [2], below 10 cfu/ml; in the data set on Staphylococcus aureus it was below 10 cfu/ml; in the data set on Escherichia coli [3], below 10 cfu/ml; in the data set with Psuedomonas aeruginosa, below 10 cfu/ml. For the same compound, the “T 7d” value in the data set with Aspergillus niger [1], in the data set with Candida albicans [2], with Staphylococcus aureus, in the data set on Escherichia coli [3] and in the data set with Psuedomonas aeruginosa was below 10 cfu/ml throughout. Moreover, the “T 0” value is recorded as 120 000 cEu/ml in the data set on Aspergillus niger [1]; 240 000 cfu/ml in the data set on Candida albicans [2]; 130 000 cfu/ml in the data set with Staphylococcus aureus; 140 000 cfu/ml in the data set with Escherichia coli [3]; 180 000 cfu/ml in the data set with Psuedomonas aeruginosa.

Take `O=S(=O)(O)O` [H2SO1 pH 0, H2SO4]: the “microbial count T3h H2SO1 pH 0” value was 50 cfu in the data set on Aspergillus niger [4] (pH 0, 3 h at 25° C.) and 70 cfu with Penicillium brevicomp. (pH 0, 3 h at 25° C.). For the same compound, the “microbial count T48h H2SO1 pH 0” value in the data set on Aspergillus niger [4] (pH 0, 48 h at 25° C.) is on record as below 10 cfu; in the data set with Penicillium brevicomp. (pH 0, 48 h at 25° C.), below 10 cfu.

`C/C=C/C=C/C(=O)O` [Sorbic acid 0.1%, Sorbic acid]: the “T 1d” value is 20 000 cfu/ml with Aspergillus niger [1]; 190 cfu/ml in the data set on Candida albicans [2]; 240 cfu/ml with Staphylococcus aureus; 490 cfu/ml in the data set on Escherichia coli [3]; 30 cfu/ml in the data set with Psuedomonas aeruginosa. Besides, the “T 7d” value in the data set with Aspergillus niger [1], in the data set with Candida albicans [2], in the data set with Staphylococcus aureus, in the data set on Escherichia coli [3] and in the data set with Psuedomonas aeruginosa was below 10 cfu/ml each time. The “T 0” value was 120 000 cEu/ml with Aspergillus niger [1]; 240 000 cfu/ml in the data set with Candida albicans [2]; 130 000 cfu/ml in the data set with Staphylococcus aureus; 140 000 cfu/ml with Escherichia coli [3]; 180 000 cfu/ml in the data set on Psuedomonas aeruginosa.

In the case of `O=S(=O)(O)O` [H2SO4 pH 1, H2SO4], the “microbial count T3h H2SO4 pH 1” value was 26 000 cfu with Candida albicans [5] (pH 1, 3 h at 25° C.); 500 000 cfu in the data set on Aspergillus niger [4] (pH 1, 3 h at 25° C.); 39 000 cfu with Penicillium brevicomp. (pH 1, 3 h at 25° C.); 39 000 cfu in the data set with Saccharomyces cer. (pH 1, 3 h at 25° C.). The “microbial count T48h H2SO4 pH 1” value with Candida albicans [5] (pH 1, 48 h at 25° C.) was below 10 cfu; with Aspergillus niger [4] (pH 1, 48 h at 25° C.) it was 500 000 cfu; in the data set on Penicillium brevicomp. (pH 1, 48 h at 25° C.) it was 14 000 cfu; in the data set on Saccharomyces cer. (pH 1, 48 h at 25° C.) it was 40* cfu.

Take `[K+].[K+].[O]=[Cr](=[O])([O-])[O][Cr](=[O])(=[O])[O-]` [potassium dichromate]: the cytotoxicity result with indicator cells is given as “cytotoxicity”.

For `CC(O)CO` (stereo not shown) [Propylene glycol 15%, Propylene glycol], the “T 1d” value in the data set with Aspergillus niger [1] is given as 30 000 cfu/ml; in the data set with Candida albicans [2], 8600 cfu/ml; in the data set with Staphylococcus aureus it was 14 000 cfu/ml; with Escherichia coli [3] it was 7100 cfu/ml; in the data set on Psuedomonas aeruginosa it was 10 cfu/ml. The “T 7d” value in the data set on Aspergillus niger [1] is given as 9000 cfu/ml; in the data set on Candida albicans [2], 30 cfu/ml; in the data set with Staphylococcus aureus, below 10 cfu/ml; in the data set on Escherichia coli [3], below 10 cfu/ml; with Psuedomonas aeruginosa, below 10 cfu/ml. Also, the “T 0” value in the data set on Aspergillus niger [1] was 120 000 cEu/ml; in the data set with Candida albicans [2], 240 000 cfu/ml; with Staphylococcus aureus it was 130 000 cfu/ml; in the data set on Escherichia coli [3], 140 000 cfu/ml; with Psuedomonas aeruginosa, 180 000 cfu/ml.

For `O=S(=O)(O)O` [H2SO4 pH 2, H2SO4], the “microbial count T3h H2SO4 pH 2” value in the data set on Candida albicans [5] (pH 2, 3 h at 25° C.) is on record as 380 000 cfu; with Aspergillus niger [4] (pH 2, 3 h at 25° C.), 370 000 cfu; with Penicillium brevicomp. (pH 2, 3 h at 25° C.), 90 000 cfu; with Saccharomyces cer. (pH 2, 3 h at 25° C.) it was 380 000 cfu. In addition, the “microbial count T48h H2SO4 pH 2” value in the data set with Candida albicans [5] (pH 2, 48 h at 25° C.) is 32 000 cfu; in the data set with Aspergillus niger [4] (pH 2, 48 h at 25° C.) it was 700 000 cfu; with Penicillium brevicomp. (pH 2, 48 h at 25° C.) it was 32 000 cfu; in the data set with Saccharomyces cer. (pH 2, 48 h at 25° C.) it was 220 000 cfu. The “microbial count, H2SO4 pH 2 after 6 h” value is listed as 20* colony-forming units in the data set on Bacillus subtilis; below 10 colony-forming units in the data set with Salmonella typhymurium; below 10 colony-forming units in the data set on Escherichia coli [8]; below 10 colony-forming units with Clostridium sporog.; below 10 colony-forming units in the data set with Staphylococus aureus. In data set [6], this compound registered a microbial count below 20 cfu/ml. For the same compound, the viral activity entry (in the data set with feline calicivirus (FCV); with pseudorabies virus (PRV); in data set [7]; in the data set on porcine parvovirus (PPV)) was “no longer infectious” each time.
